Activity calls are given as the source filed them. The rule behind the calls is not given here. *1 amine or outer side, *2 acyl side, *3 side chain or, on linkers, in order; H or OH if unused. Where a SMILES comes first, the peptide text is derived from it. Bridges are numbered along the chain shown (N, C = ends). [ ]: non-standard residue; d: D form. X1 = O=C([C@H](CC/C=C\[*:3])N[*:1])[*:2]; X2 = O=C([C@H](CC/C=C/[*:3])N[*:1])[*:2]; hCys = N[C@@H](CCS)C(=O)O
Legend:
Oryctolagus cuniculus = species on record: Oryctolagus cuniculus; assay: Agonistic activity in vascular contractility study on rabbit aorta; type: functional, organism-based
[1] = target: T1, Type-1 angiotensin II receptor B (Rattus norvegicus, UniProt P29089); assay: In vitro binding affinity at rat liver Angiotensin II receptor, type 1 was determined based on displacement of [125I]-Ang II
T1 sequence (P29089 whole entry): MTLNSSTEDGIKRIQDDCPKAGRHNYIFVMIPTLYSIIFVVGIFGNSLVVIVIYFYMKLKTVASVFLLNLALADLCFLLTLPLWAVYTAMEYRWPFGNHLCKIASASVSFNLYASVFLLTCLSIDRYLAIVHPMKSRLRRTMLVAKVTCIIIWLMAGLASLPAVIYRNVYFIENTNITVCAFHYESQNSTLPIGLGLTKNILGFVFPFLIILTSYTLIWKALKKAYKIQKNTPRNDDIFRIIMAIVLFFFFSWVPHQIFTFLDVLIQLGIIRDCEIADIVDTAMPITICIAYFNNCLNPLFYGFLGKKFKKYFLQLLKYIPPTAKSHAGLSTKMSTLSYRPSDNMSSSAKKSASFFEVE

[2] = target: T2, Type-1 angiotensin II receptor B (Rattus norvegicus) (UniProt P29089); assay: In vitro binding affinity at rat liver Angiotensin II receptor, type 1 was determined based on displacement of [125I]-Ang II; no affinity
T2 sequence (whole entry): T1 sequence (P29089 whole entry)

EC50 (Oryctolagus cuniculus) | Ki [1] | SMILES | also measured
26 nM | – | NC(N)=NCCC[C@H](NC(=O)[C@@H](N)CC(=O)O)C(=O)N[C@H]1CS/C=C\CC[C@@H](C(=O)N[C@@H](Cc2c[nH]cn2)C(=O)N2CCC[C@H]2C(=O)N[C@@H](Cc2ccccc2)C(=O)O)NC(=O)[C@H](Cc2ccc(O)cc2)NC1=O (H-DRCY[X1]HPF-OH; thioether 3-5) | –
– | 1.7 nM | NC(N)=NCCC[C@H](NC(=O)[C@@H](N)CC(=O)O)C(=O)N[C@H]1CS/C=C\CC[C@@H](C(=O)N[C@@H](Cc2cnc[nH]2)C(=O)N2CCC[C@H]2C(=O)N[C@@H](Cc2ccccc2)C(=O)O)NC(=O)[C@H](Cc2ccc(O)cc2)NC1=O (H-DRCY[X1]HPF-OH; thioether 3-5) | –
16.1 nM | – | NC(N)=NCCC[C@H](NC(=O)[C@@H](N)CC(=O)O)C(=O)N[C@H]1CS/C=C/CC[C@@H](C(=O)N[C@@H](Cc2c[nH]cn2)C(=O)N2CCC[C@H]2C(=O)N[C@@H](Cc2ccccc2)C(=O)O)NC(=O)[C@H](Cc2ccc(O)cc2)NC1=O (H-DRCY[X2]HPF-OH; thioether 3-5) | –
– | 1.7 nM | NC(N)=NCCC[C@H](NC(=O)[C@@H](N)CC(=O)O)C(=O)N[C@H]1CS/C=C/CC[C@@H](C(=O)N[C@@H](Cc2cnc[nH]2)C(=O)N2CCC[C@H]2C(=O)N[C@@H](Cc2ccccc2)C(=O)O)NC(=O)[C@H](Cc2ccc(O)cc2)NC1=O (H-DRCY[X2]HPF-OH; thioether 3-5) | –
– | – | CC(C)[C@H](NC(=O)[C@H](CCCN=C(N)N)NC(=O)[C@@H](N)CC(=O)O)C(=O)N[C@@H](Cc1ccc(O)cc1)C(=O)N[C@H]1CC/C=C\SC[C@@H](C(=O)N[C@@H](Cc2ccccc2)C(=O)O)NC(=O)[C@H](Cc2c[nH]cn2)NC1=O (H-DRVY[X1]HCF-OH; thioether 5-7) | NA [2]: inactive
– | – | CC(C)[C@H](NC(=O)[C@H](CCCN=C(N)N)NC(=O)[C@@H](N)CC(=O)O)C(=O)N[C@@H](Cc1ccc(O)cc1)C(=O)N[C@H]1CC/C=C/SC[C@@H](C(=O)N[C@@H](Cc2ccccc2)C(=O)O)NC(=O)[C@H](Cc2c[nH]cn2)NC1=O (H-DRVY[X2]HCF-OH; thioether 5-7) | NA [2]: inactive
– | 0.23 nM | NC(N)=NCCC[C@H](NC(=O)[C@@H](N)CC(=O)O)C(=O)N[C@H]1CCSSCC[C@@H](C(=O)N[C@@H](Cc2c[nH]cn2)C(=O)N2CCC[C@H]2C(=O)N[C@@H](Cc2ccccc2)C(=O)O)NC(=O)[C@H](Cc2ccc(O)cc2)NC1=O (H-DR[hCys]Y[hCys]HPF-OH; disulfide 3-5) | –
1.4 nM | – | CC[C@H](C)[C@H](NC(=O)[C@H](Cc1ccc(O)cc1)NC(=O)[C@@H](NC(=O)[C@H](CCCNC(=N)N)NC(=O)[C@@H](N)CC(=O)O)C(C)C)C(=O)N[C@@H](Cc1cnc[nH]1)C(=O)N1CCC[C@H]1C(=O)N[C@@H](Cc1ccccc1)C(=O)O [ANGIOTENSIN II] | –

From ChEMBL document CHEMBL1135927, “Vinyl sulfide cyclized analogues of angiotensin II with high affinity and full agonist activity at the AT(1) receptor” (J Med Chem, 2002)
